In ChEMBL document CHEMBL1159000, “Anti-AIDS agents, 4. Tripterifordin, a novel anti-HIV principle from Tripterygium wilfordii: isolation and structural elucidation” (J Nat Prod, 1992) one finds EC50 and Activity data, which are given here for one compound.

In data set [1] the test system is Human immunodeficiency virus 1. The data set is described as follows: Antiviral activity against HIV1 3B replication in human H9 cells after 1 hr by p24 antigen capture assay. Type of data set: functional, organism-based. As to conditions: Human immunodeficiency virus 1, 3B, H9, 1 h.
For the next data set, the system named is H9. The data set is described as follows: Inhibition human H9 cell growth assessed as cell density at 15 uM after 3 days by cell count assay. The settings on record: h9, 72 h. In kind it is cell-based.

Converted amounts (≈) assume the structure as drawn.

In data set [1], `C[C@@]1(O)C[C@@]23CC[C@H]4[C@@]5(CCC[C@]4(C)C(=O)OC5)[C@@H]2CC[C@H]1C3` [TRIPTERIFORDIN] showed an EC50 of 1 µg/mL (≈ 3.14 µM). Also, the Activity result in the data set on H9 is listed as “Non-toxic”.
